Source: patent US20250108017A1 (Aquestive Therapeutics, Inc., priority 2023, published 2025)
Read-outs that look alike come from different tables or passages of the source. One block for each molecule: values may come before it.

Key:
[1] = in vivo
Experimental: The study compared various dose routes: sublingual (SL), per oral tablet (PO), subcutaneous (SC) and intravenous (IV). […] An Oral Irritation assessment was performed (SL film group): Predose (0) and 24 hr postdose by Draize scoring.

[2] = for average flux: 16 mg/mL
Experimental: A franz diffusion cell is obtained and prepared.
If testing films, one can perform the following next steps: (1) weigh films, punch to match diffusion area (or smaller), reweigh, record pre- and post-punching weight; (2) wet a donor area with approximately 100 μL of phosphate buffer; (3) place film on a donor surface, top with 400 μL of phosphate buffer, and start timers.
The tissue is dermatomed to precise thickness. • 4. […] The media is selected to ensure sink conditions. • 5.
The study compared concentrations of 4 mg/mL, 8 mg/mL, 16 mg/mL and 100 mg/mL. […]

[3] = PBS (pH 7.4), 37°±1° C., n=6; cited from earlier work

% Bioavailability, DIPI AUC0-t [1]: 128.5%
% Bioavailability, EPI AUC0-t [1]: 131.0%
Structure (SMILES): CNC[C@H](O)c1ccc(OC(=O)C(C)(C)C)c(OC(=O)C(C)(C)C)c1 (racemic) [Dipivefrin, dipivefrin]

permeation as a function of solution pH [2]: slightly more favorable
average flux ([2]; 30 min): 0 μg/cm^2*min
average flux ([2]; 45 min): 0.2604 μg/cm^2*min
average flux ([2]; 60 min): 0.3125 μg/cm^2*min
average flux ([2]; 120 min): 0.6727 μg/cm^2*min
average flux ([2]; 180 min): 1.076 μg/cm^2*min
average flux ([2]; 240 min): 1.029 μg/cm^2*min
average flux ([2]; 300 min): 1.25 μg/cm^2*min
average flux ([2]; 360 min): 1.385 μg/cm^2*min
Structure (SMILES): CNC[C@H](O)c1ccc(O)c(O)c1 [Epinephrine Bitartrate]

Structure (SMILES): CC(C)NCC(O)COc1cccc2ccccc12 (stereo not drawn) [PP]
concentration of saturated solution (C0) [3]: 588005 ± 5852 µg/mL
